Measurements as given in ChEMBL document CHEMBL1147474, “Synthesis of new 2'-beta-C-methyl related triciribine analogues as anti-HCV agents” (Bioorg Med Chem Lett, 2004).

How the values were obtained:
Huh-7 [1] = test: Cytotoxicity using HCV replicon assay; assay type: functional; details: Homo sapiens
Huh-7 [2] = test: Compound was tested for its ability to inhibit hepatitis C viral RNA replication in Huh-7 cells (human hepatoma cells); assay type: functional, cell-based

Structure (SMILES) | CC50 (Huh-7 [1]) [µM] | EC50 (Huh-7 [2]) [µM]
NC1=NN(CCO)c2ncnc3c2c1cn3[C@@H]1O[C@H](CO)[C@@H](O)[C@H]1O | > 300 | 20
CCN1N=C(N)c2cn([C@@H]3O[C@H](CO)[C@@H](O)[C@H]3O)c3ncnc1c23 | 150 | 1
CCCCN1N=C(N)c2cn([C@@H]3O[C@H](CO)[C@@H](O)[C@@]3(C)O)c3ncnc1c23 | > 300 | 100
C[C@@]1(O)[C@H](O)[C@@H](CO)O[C@H]1n1cc2c3c(ncnc31)N(CCO)N=C2N | > 300 | 200
CCCN1N=C(N)c2cn([C@@H]3O[C@H](CO)[C@@H](O)[C@@]3(C)O)c3ncnc1c23 | > 300 | 100
CN1N=C(N)c2cn([C@@H]3O[C@H](CO)[C@@H](O)[C@@]3(C)O)c3ncnc1c23 | > 300 | 18
CCN1N=C(N)c2cn([C@@H]3O[C@H](CO)[C@@H](O)[C@@]3(C)O)c3ncnc1c23 | > 200 | 15
CC(=O)NC1=NN(CCO)c2ncnc3c2c1cn3[C@@H]1O[C@H](CO)[C@@H](O)[C@@]1(C)O | 200 | 100
CC(=O)NC1=NN(C)c2ncnc3c2c1cn3[C@@H]1O[C@H](CO)[C@@H](O)[C@@]1(C)O | 300 | 150
NC1=NN(Cc2ccccc2)c2ncnc3c2c1cn3[C@@H]1O[C@H](CO)[C@@H](O)[C@H]1O | > 300 | 125
